From the supplement of paper PMC10307832

How the values were obtained:
Assay in all cases: relative viability (nuclei count vs DMSO), 5 days (fraction); higher = more cells survive
[1] = compound: C1CNCCC1C2=CC(=NN2)C3=CC=NC=C3 + Cc1cc(Nc2cc(N3CCN(C)CC3)nc(Sc3ccc(NC(=O)C4CC4)cc3)n2)n[nH]1 [Tozasertib] (partner 0.1 µM)
Outline: (§1)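 A single step with final 0.05% Triton X-100, 1% formaldehyde and 1 ug/ml Hoechst fixed the cells and stained nuclei 5 days after treatment. Lung cancer cell lines in 1536-well plates had been treated by pin tool the day after seeding with one drug alone or a fixed anchor-drug dose plus five library-drug doses (not always all listed) in √10 steps, and nuclei were counted on 4× images. Relative viability is the ratio of nuclei in treated wells to nuclei in vehicle wells, taken as the median of duplicate plates.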

[2] = compound: C[C@@H](N)c1ccc(C(=O)Nc2ccnc3[nH]ccc23)cc1 + CCNC(=O)c1noc(-c2cc(C(C)C)c(O)cc2O)c1-c1ccc(CN2CCOCC2)cc1 [Luminespib] (partner 0.01 µM)
Outline: as §1

[3] = compound: C[C@@H](N)c1ccc(C(=O)Nc2ccnc3[nH]ccc23)cc1 + Cc1cc(Nc2cc(N3CCN(C)CC3)nc(Sc3ccc(NC(=O)C4CC4)cc3)n2)n[nH]1 [Tozasertib] (partner 0.1 µM)
Outline: as §1

Tanzisertib + AZD7762 = compound: O[C@H]1CC[C@H](Nc2ncc3nc(Nc4c(F)cc(F)cc4F)n([C@H]4CCOC4)c3n2)CC1 [Tanzisertib] + NC(=O)Nc1cc(-c2cccc(F)c2)sc1C(=O)N[C@H]1CCCNC1 [AZD7762] (partner 0.2 µM)
Outline: as §1

| Cell Line | relative viability ([1]; first compound 0.08 µM) | relative viability ([1]; first compound 0.8 µM) | relative viability ([1]; first compound 2.53 µM) | relative viability ([1]; first compound 8 µM) | relative viability ([2]; first compound 0.04 µM) | relative viability ([2]; first compound 0.1265 µM) | relative viability ([2]; first compound 0.4 µM) | relative viability ([2]; first compound 1.265 µM) | relative viability ([2]; first compound 4 µM) | relative viability ([3]; first compound 0.04 µM) | relative viability ([3]; first compound 0.1265 µM) | relative viability ([3]; first compound 0.4 µM) | relative viability ([3]; first compound 1.265 µM) | relative viability ([3]; first compound 4 µM) | relative viability (Tanzisertib + AZD7762; first compound 0.08 µM) | relative viability (Tanzisertib + AZD7762; first compound 0.253 µM) | relative viability (Tanzisertib + AZD7762; first compound 0.8 µM) | relative viability (Tanzisertib + AZD7762; first compound 2.53 µM) | relative viability (Tanzisertib + AZD7762; first compound 8 µM) |
| --- | --- | --- | --- | --- | --- | --- | --- | --- | --- | --- | --- | --- | --- | --- | --- | --- | --- | --- | --- |
| NCI-H1395 | 0.731 | 0.643 | 0.813 | 0.766 | 0.662 | 0.716 | 0.64 | 0.669 | 0.685 | 0.811 | 0.749 | 0.739 | 0.805 | 0.656 | 0.439 | 0.399 | 0.382 | 0.394 | 0.425 |
| NCI-H1651 | 0.598 | 0.685 | 0.767 | 0.735 | 0.806 | 0.734 | 1.1 | 1.02 | 0.826 | 0.844 | 0.602 | 0.798 | 0.871 | 0.885 | 0.507 | 0.464 | 0.43 | 0.426 | 0.378 |
| HARA | 0.12 | 0.0979 | 0.11 | 0.0912 | – | 0.738 | 0.675 | – | 0.608 | – | 0.101 | 0.0806 | – | 0.087 | 0.288 | 0.358 | 0.337 | 0.286 | 0.275 |
| NCI-H1944 | 0.243 | 0.264 | 0.263 | 0.256 | 0.857 | 0.722 | 0.753 | 0.746 | 0.6 | 0.278 | 0.269 | 0.271 | 0.258 | 0.218 | 0.526 | 0.507 | 0.52 | 0.422 | 0.458 |
| NCI-H2347 | 0.766 | 0.599 | 0.557 | 0.571 | 0.469 | 0.308 | 0.784 | – | 0.795 | 0.466 | 0.64 | 0.592 | – | 0.706 | 0.866 | 0.718 | 0.825 | 0.762 | 0.662 |
| 201T | 0.944 | 0.944 | 0.893 | 0.951 | 1.02 | 1.02 | 1.08 | 1.14 | 1.14 | 0.945 | 0.897 | 0.977 | 1.08 | 1.04 | 0.659 | 0.528 | 0.578 | 0.555 | 0.524 |
| PC-14 | 0.648 | 0.589 | 0.661 | 0.542 | – | 0.183 | 0.154 | – | 0.132 | 0.518 | 0.577 | 0.543 | 0.385 | 0.429 | 0.476 | 0.531 | 0.367 | 0.386 | 0.213 |
| NCI-H727 | 0.613 | 0.51 | 0.87 | 0.545 | 0.341 | 0.516 | 0.425 | 0.285 | 0.363 | 0.654 | 0.746 | 0.66 | 0.602 | 0.544 | 0.59 | 0.652 | 0.524 | 0.544 | 0.599 |
| NCI-H2342 | 0.437 | 0.491 | 0.537 | 0.518 | 0.858 | 0.797 | 0.719 | 0.802 | 0.808 | 0.496 | 0.382 | 0.493 | 0.495 | 0.525 | 0.416 | 0.633 | 0.515 | 0.477 | 0.41 |
| ChaGo-K-1 | 0.237 | 0.223 | 0.232 | 0.216 | 0.554 | 0.641 | 0.629 | 0.562 | 0.436 | 0.223 | 0.219 | 0.221 | 0.246 | 0.21 | 0.926 | 0.89 | 0.856 | 0.839 | 0.796 |
| HOP-62 | 0.416 | 0.407 | 0.386 | 0.383 | 0.732 | 0.812 | 0.94 | 0.893 | 0.817 | 0.328 | 0.351 | 0.369 | 0.398 | 0.297 | 0.483 | 0.503 | 0.708 | 0.625 | 0.47 |
| NCI-H1915 | 0.475 | 0.435 | 0.451 | 0.438 | 0.825 | 0.817 | 0.869 | – | 0.629 | 0.455 | 0.472 | 0.45 | – | 0.331 | 0.716 | 0.675 | 0.709 | 0.714 | 0.653 |
| BEN | 0.575 | 0.514 | 0.45 | 0.513 | 0.369 | 0.332 | 0.44 | 0.29 | 0.286 | 0.466 | 0.432 | 0.53 | 0.484 | 0.48 | 0.622 | 0.8 | 0.868 | 0.724 | 0.565 |
| NCI-H1437 | 0.412 | 0.415 | 0.417 | 0.421 | 1.1 | 1.05 | 1.21 | 1.13 | 0.907 | 0.462 | 0.433 | 0.448 | 0.436 | 0.408 | 1.15 | 1.15 | 1.12 | 1.12 | 1.12 |
| EMC-BAC-2 | 0.28 | 0.311 | 0.319 | 0.263 | 1.15 | 1.22 | 1.25 | 1.09 | 1.04 | 0.252 | 0.276 | 0.3 | 0.271 | 0.24 | 1.16 | 1.15 | 1.04 | 0.947 | 1.04 |
